Measurements reported in article PMC6416898, “Prediction of Toxoplasma gondii virulence factor ROP18 competitive inhibitors by virtual screening” (Parasites & Vectors, 2019).
Like-named read-outs stand apart in the source and are kept apart here.

Biological target: T1, ROP18 (187–554 aa) kinase domain (Toxoplasma gondii, UniProt Q2PAY2)
T1 construct: kinase domain 187-554 of ROP18; His6-GST-MBP-Gb1 fusion from plasmid pETDL4.0-ROP18, E. coli Rosetta 2, amylose beads; 4JRN is the docking structure (187-554), not solved here
Assay: HTRF KinEASE kinase assay with biotinylated peptide substrate
Type: biochemical

T1 sequence (Q2PAY2 187-554): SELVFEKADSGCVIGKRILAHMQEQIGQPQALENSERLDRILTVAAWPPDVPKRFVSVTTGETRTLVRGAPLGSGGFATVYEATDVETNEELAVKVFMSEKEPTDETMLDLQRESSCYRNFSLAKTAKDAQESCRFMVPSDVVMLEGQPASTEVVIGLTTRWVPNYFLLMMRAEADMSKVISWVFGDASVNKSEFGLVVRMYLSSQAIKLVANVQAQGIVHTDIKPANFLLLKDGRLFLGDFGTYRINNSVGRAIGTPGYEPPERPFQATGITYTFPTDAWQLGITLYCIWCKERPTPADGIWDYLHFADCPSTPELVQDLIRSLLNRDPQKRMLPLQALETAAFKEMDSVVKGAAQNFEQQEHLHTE

SMILES	IC50	IC50 (read-out: IC50)
C=CCN1C(=O)NC(=O)/C(=C/c2cc(Br)c(OCC(=O)O)c(OC)c2)C1=O [compound 1]	220 nM	–
O=C(O)CCCCCN1C(=O)c2c(Br)c(Br)c(Br)c(Br)c2C1=O [compound 11, AK-918/11642046]	–	41 nM
